“Also recorded” adds a separate entry of the source. Marks after values point to notes of the source that are not given here.
Key:
[1] = test system: rats, IT SP (spinal NK-1 receptors); experiment: IT substance P-evoked thermal hyperalgesia (paw withdrawal latency, Hargreaves device); type: in vivo, rat; conditions: for IT SP-induced thermal hyperalgesia (paw withdrawal latency): IT p38α AS 30 μg or p38β AS 20 μg daily for five days, IT SP 30 nmol, compared with MS group; for Base line thermal thresholds: before IT SP, after five days of IT treatment
Procedure: Yaksh et al., Nature 286: 155-157, 1980; Yaksh, Trends Pharmacol Sci 20: 329-337, 1999. […] Malmberg and Yaksh, Science 257: 1276-1279, 1992; Svensson et al., J Neurochem 86: 1534-1544, 2003. […] To investigate the contribution of p38α and p38β to SP-evoked hyperalgesia and p38 phosphorylation, spinal delivery of p38α and p38β AS and MS was carried out. Thermal withdrawal latencies was assessed after IT injection of SP and lumbar spinal cords collected immediately to compare the degree of spinal p38 phosphorylation at the hypothesized time of peak phosphorylation. IT injection of SP into the MS group produced an expected reduction of thermal withdrawal latency in comparison with IT saline injection into to vehicle treated animals (FIG. 7C). […] In contrast, IT SP-induced thermal hyperalgesia was attenuated in rats which had received p38β AS (FIG. 7E). […] Stripping and reprobing the western blot membranes confirmed that p38α protein expression was knocked down in p38α AS treated group (FIG. 7D) as well as p38β in the p38β AS group (FIG. 7F).
Nociceptive models. To directly induce spinal sensitization, rats received intrathecal injections of sP (30 nmol) which activates spinal NK-1 receptors and produces thermal hyperalgesia. Hua et al., Neuroscience 89: 525-534, 1999a; Piercey et al., Science 214: 1361-1363, 1981; Yashpal and Henry, Can J Physiol Pharmacol 61: 303-307, 1983. Thermally evoked paw withdrawal responses were assessed using a Hargreaves type testing device. Dirig et al., J Neurosci Methods 76: 183-191, 1997. Briefly, rats were placed on a glass surface maintained at 30° C. The thermal nociceptive stimulus originates from a projection bulb below the glass surface, and the stimulus is delivered separately to one hind paw at a time. The animals were allowed to acclimatize on the glass surface and basal paw withdrawal latencies (PWL) were then assessed for left and right paws at time (T)=−40, =30 and −20 min and expressed as the mean of the six measurements. At T=−10 min the animals received intrathecal vehicle or drug and at T=0, sP was injected. Withdrawal latencies were then assessed at T=15, 30, 45 and 60 min. Paw withdrawal latency for each group was expressed as the mean at each time point.

p38α = experiment: Western blot of spinal p38α protein expression after IT antisense; type: in vivo, rat; conditions: for p38α protein expression, % Expression Compared to Missense: spinal cord at day six, MS=100%, mean ±SEM n=6; for spinal p38α protein expression compared to missense (MS)-treated animals (in words): five days of IT bolus injections, p38α AS 10-30 μg (30 μg: P<0.05), p38β AS 10-20 μg
Description: It has previously been shown that inhibition of spinal p38 MAP kinase prevents both inflammation-evoked hyperalgesia and nerve injury-induced allodynia. Ji et al., Neuron 36: 57-68, 2002; Schafers et al., J Neurosci 23: 2517-2521, 2003; Svensson et al., Neuroreport 14: 1153-1157, 2003a.; Svensson et al., J Neurochem 86: 1534-1544, 2003b. It still remains to be determined whether only one or both of the p38 isoforms, that are present in the spinal cord, are involved in modulation of spinal nociceptive processing. Since there is no specific p38 isoform inhibitors available, rats were treated intrathecally with isoform specific antisense oligonucleotides (AS) in order to knock down p38α and p38β respectively. […] There were no differences between the AS-, MS- or vehicle-treated groups in terms of weight gain or motor function. The specificity of the effects of these two antisense oligonucleotides was also examined. Western blot membranes were stripped and re-incubated the with the other p38 isoform antibody. […] In Table 1, antisense was given IT once daily for 5 days and protein expression assayed in spinal chord at day six compared to protein level detected in missense treated animals (MS=100%). Each group represents mean ±SEM, n=6 per group. (*) represents P<0.05 as compared to the missense group.
Antisense oligonucleotides. Three oligonucleotides (a kind gift from ISIS Pharmaceuticals Inc.) with lengths of 20 nucleotides were employed in the study: ISIS 101757 (p38α AS) […], beginning at position 1081 in the rat p38α mRNA; ISIS 107211 (p38βAS) […], beginning at position 439 in the rat p38β mRNA; and ISIS141923 (an universe MS control) […]. These oligonucleotides were synthesized as 2′-methoxyethyl (MOE) phosphorothioate chimeric oligonucleotides in which the first and last five bases contained MOE modifications with a uniform phosphorothioate backbone. Butler et al., Diabetes 51: 1028-1034, 2002. The oligonucleotides were dissolved in artificial cerebrospinal fluid (ACSF) immediately prior to intrathecal administration. The ACSF contained (mM) 151.1 Na+, 2.6 K+, 0.9 Mg2+, 1.3 Ca 2+, 122.7 Cl−, 21.0 HCO3, 2.5 HPO4 and was bubbled with 95% O2/5% CO2 before use to adjust the final pH to 7.2. AS and MS (10-30 μg) was administrated in 10 μl ACSF followed by 10 μl saline daily for five days and behavioral experiments and spinal tissue collection performed on day six.
Western blot. Prior to sacrifice, rats were deeply anesthetized and after decapitation the spinal cords were ejected from the vertebral column by a saline-filled syringe. The lumbar part of the spinal cord was immediately homogenized in extraction buffer (50 mM Tris buffer, pH 8.0, containing 0.5% Triton X-100, 150 mM NaCl, 1 mM EDTA, phosphatase and protease inhibitors) by sonication. The tissue extracts were subjected to denaturing NuPAGE 4-12% Bis-Tris gel electrophoresis and then transferred to nitrocellulose membranes (Micronic Separation Inc. Westborough, Mass.). After blocking nonspecific binding sites with 5% low-fat milk in PBS containing 0.1% Tween 20 (PBS-T) for 1 hour in room temperature, the membranes were incubated with antibodies overnight at 4° C. After washing, the antibody-protein complexes were probed with appropriate secondary antibodies labeled with horseradish peroxidase for 1 hr at room temperature and detected with chemiluminescent reagents (SuperSignal, Pierce, Rockford, Ill.). […]

Substance: p38α AS: 20-nucleotide 2′-MOE phosphorothioate chimeric antisense AGGTGCTCAGGACTCCATTT, beginning at position 1081 in the rat p38α mRNA (all phosphorothioate, sugars by position and methylation of C not given here; 2'-MOE chimeric (gapmer) antisense)
- IT SP-induced thermal hyperalgesia (paw withdrawal latency) [1]: not affected
- Base line thermal thresholds [1]: 11.49 ± 0.3 s
- p38α protein expression, % Expression Compared to Missense (p38α; IT antisense 10 μg once daily for 5 days): 59 ± 26%
- p38α protein expression, % Expression Compared to Missense (p38α; IT antisense 30 μg once daily for 5 days): 39 ± 8* %
- spinal p38α protein expression compared to missense (MS)-treated animals (in words) (p38α): significant down-regulation; also recorded: knocked down

Substance: p38β AS: 20-nucleotide 2′-MOE phosphorothioate chimeric antisense GTATGTCCTCCTCGCGTGGA, beginning at position 439 in the rat p38β mRNA (all phosphorothioate, sugars by position and methylation of C not given here; 2'-MOE chimeric (gapmer) antisense)
- IT SP-induced thermal hyperalgesia (paw withdrawal latency) [1]: attenuated; also recorded: blocked IT SP-evoked thermal hyperalgesia
- Base line thermal thresholds [1]: 10.8 ± 0.5 s
- p38α protein expression, % Expression Compared to Missense (p38α; IT antisense 20 μg once daily for 5 days): 205 ± 65* %
- spinal p38α protein expression compared to missense (MS)-treated animals (in words) (p38α): somewhat increased

From patent US20080206253A1, “Method For Preventing or Treating Pain in a Mammal” (priority 2005, published 2008)
